Measurements as given in ChEMBL document CHEMBL1154937, “Radiosynthesis of novel carbon-11-labeled triaryl ligands for cannabinoid-type 2 receptor” (Bioorg Med Chem Lett, 2010).

Columns and labels:
[1] = target: Cannabinoid receptor 2 (Homo sapiens, UniProt P34972); assay: Binding affinity to human CB2 receptor
[2] = target: T1, Cannabinoid receptor 2 (Rattus norvegicus, UniProt Q9QZN9); assay: Binding affinity to rat brain CB2 receptor
T1 sequence (Q9QZN9 whole entry): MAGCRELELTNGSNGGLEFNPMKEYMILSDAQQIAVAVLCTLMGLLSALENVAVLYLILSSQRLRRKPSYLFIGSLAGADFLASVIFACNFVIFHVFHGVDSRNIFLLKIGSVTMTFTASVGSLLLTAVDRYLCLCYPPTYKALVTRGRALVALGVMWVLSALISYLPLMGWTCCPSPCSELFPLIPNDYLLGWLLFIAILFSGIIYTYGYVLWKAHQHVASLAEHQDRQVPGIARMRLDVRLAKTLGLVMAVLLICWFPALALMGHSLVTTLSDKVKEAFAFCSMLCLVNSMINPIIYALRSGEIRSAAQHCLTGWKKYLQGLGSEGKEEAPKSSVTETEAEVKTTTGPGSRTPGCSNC

[3] = test system: Brain; assay: Drug uptake in […] brain at 8 MBq/200 mL, iv after 1 min; format: ADME, organism-based; conditions: in vivo
[4] = test system: Brain; assay: Drug uptake in […] brain at 8 MBq/200 mL, iv after 5 mins; format: ADME, organism-based; conditions: in vivo
[5] = test system: Brain; assay: Drug uptake in […] brain at 8 MBq/200 mL, iv after 15 mins; format: ADME, organism-based; conditions: in vivo, 0.25 h
[6] = test system: Brain; assay: Drug uptake in […] brain at 8 MBq/200 mL, iv after 30 mins; format: ADME, organism-based; conditions: in vivo, 0.5 h
[7] = test system: Brain; assay: Drug uptake in […] brain at 8 MBq/200 mL, iv after 60 mins; format: ADME, organism-based; conditions: in vivo, 1 h
[8] = test system: Blood; assay: Drug uptake in […] blood at 8 MBq/200 mL, iv after 1 min; format: ADME, organism-based; conditions: in vivo
[9] = test system: Blood; assay: Drug uptake in […] blood at 8 MBq/200 mL, iv after 5 mins; format: ADME, organism-based; conditions: in vivo
[10] = test system: Blood; assay: Drug uptake in […] blood at 8 MBq/200 mL, iv after 15 mins; format: ADME, organism-based; conditions: in vivo, 0.25 h
[11] = test system: Blood; assay: Drug uptake in […] blood at 8 MBq/200 mL, iv after 30 mins; format: ADME, organism-based; conditions: in vivo, 0.5 h
[12] = test system: Blood; assay: Drug uptake in […] blood at 8 MBq/200 mL, iv after 60 mins; format: ADME, organism-based; conditions: in vivo, 1 h
[13] = target: Cannabinoid receptor 1 (Homo sapiens, UniProt P21554); assay: Binding affinity to CB1 receptor
Chain of Cannabinoid receptor 1 (P21554 whole entry): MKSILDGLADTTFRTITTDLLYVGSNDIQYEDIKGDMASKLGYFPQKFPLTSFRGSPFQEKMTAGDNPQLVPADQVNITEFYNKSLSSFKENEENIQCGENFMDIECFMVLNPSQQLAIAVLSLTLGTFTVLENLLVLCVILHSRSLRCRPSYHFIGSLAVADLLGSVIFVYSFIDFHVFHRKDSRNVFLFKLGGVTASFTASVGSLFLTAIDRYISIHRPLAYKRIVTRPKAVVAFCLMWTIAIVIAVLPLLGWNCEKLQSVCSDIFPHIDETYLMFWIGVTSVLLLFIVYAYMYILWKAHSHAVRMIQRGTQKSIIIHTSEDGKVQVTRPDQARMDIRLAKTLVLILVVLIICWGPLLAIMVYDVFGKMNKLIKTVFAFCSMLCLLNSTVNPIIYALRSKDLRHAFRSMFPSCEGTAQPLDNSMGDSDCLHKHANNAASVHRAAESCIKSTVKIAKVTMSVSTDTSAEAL

Chain of Cannabinoid receptor 2 (Homo sapiens, UniProt P34972) (P34972 whole entry): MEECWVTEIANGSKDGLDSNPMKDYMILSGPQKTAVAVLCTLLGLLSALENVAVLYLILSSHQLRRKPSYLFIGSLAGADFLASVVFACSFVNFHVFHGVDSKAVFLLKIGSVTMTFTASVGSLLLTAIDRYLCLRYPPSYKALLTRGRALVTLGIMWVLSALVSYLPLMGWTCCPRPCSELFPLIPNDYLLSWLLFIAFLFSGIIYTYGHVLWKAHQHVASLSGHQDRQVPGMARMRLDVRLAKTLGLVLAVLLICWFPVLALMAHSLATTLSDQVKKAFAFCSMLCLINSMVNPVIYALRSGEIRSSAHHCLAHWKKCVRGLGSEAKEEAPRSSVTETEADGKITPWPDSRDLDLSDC

SMILES	Ki [1] [nM]	Ki [2] [nM]	Drug uptake [3] [%]	Drug uptake [4] [%]	Drug uptake [5] [%]	Drug uptake [6] [%]	Drug uptake [7] [%]	Drug uptake [8] [%]	Drug uptake [9] [%]	Drug uptake [10] [%]	Drug uptake [11] [%]	Drug uptake [12] [%]	Ki [13] [nM]
CCCCOc1c(OCC[18F])ccc2cc(C(=O)NC3CCCCC3)c(=O)[nH]c12	35.8	–	–	–	–	–	–	–	–	–	–	–	–
CCCCOc1c(O[11CH3])ccc2cc(C(=O)NC3CCCCC3)c(=O)[nH]c12	9.6	–	–	–	–	–	–	–	–	–	–	–	–
COc1cc(C(O)c2cccs2)cc(O[11CH3])c1-c1cc(Cl)cc(Cl)c1 (stereo unspecified)	–	0.27	1.93	1.87	1.5	1.09	0.65	3.9	2.12	2.25	2.38	2.27	–
COc1ccc(S(=O)(=O)c2ccc(C(C)NS(C)(=O)=O)cc2)c(S(=O)(=O)c2ccc(O[11CH3])cc2)c1 (stereo unspecified)	4.5	–	–	–	–	–	–	–	–	–	–	–	–
COc1cc(C(O)c2cccs2)cc(OC)c1-c1cc(Cl)cc(Cl)c1 (stereo unspecified)	–	–	–	–	–	–	–	–	–	–	–	–	> 1000
COc1cc(C(=O)c2cccs2)cc(O[11CH3])c1-c1cc(Cl)cc(Cl)c1	–	–	1.2	1.29	1.1	0.85	0.62	2.71	2.93	3.45	3.42	3.38	–
[11CH3]Oc1cc(C(O)c2cccs2)cc(O)c1-c1cc(Cl)cc(Cl)c1 (stereo unspecified)	–	–	1.94	2.07	1.77	0.96	0.45	2.2	1.18	0.7	0.35	0.37	–
[11CH3]Oc1cc(C(=O)c2cccs2)cc(O)c1-c1cc(Cl)cc(Cl)c1	–	2.32	1.54	1.63	1.01	0.56	0.18	1.56	1	0.63	0.36	0.21	–
